{
  "source": "patent US20220096515A1",
  "about": "“Methods and Formulations for Preventing Neurological or Psychiatric Disorders” (Huntington Medical Research Institutes, priority 2020, published 2022)",
  "type_in_all_cases": "in vivo, mouse",
  "key": {"[1]": {"tested_on": "Gabrb3^ECKO endothelial cells", "assay": "GABA secretion by ELISA after prenatal treatment", "experimental": "ELISA: Periventricular endothelial cells were prepared after the NAD^+ treatment paradigm, or after the treatment with purinergic receptor agonists/antagonists, and seeded in 12 well culture plates at 0.1×10^6 cells/well. Supernatants from endothelial cell cultures were collected after 96 hours and stored at −80° C. for ELISA. GABA concentrations were quantitatively determined by competitive ELISA according to the manufacturers' protocol (GABA Research ELISA kits, Labor Diagnostica Nord, Germany), and absorbance was measured using a multiplate microplate fluorescence reader (Molecular Devices, CA) at 450 nm.\nEndothelial cell derived GABA plays dual roles in the embryonic forebrain. It not only activates a positive feedback cycle in endothelial cells that stimulates angiogenesis, but also is an essential chemo-attractive and guidance cue for promotion of long-distance migration of GABAergic interneurons. […] Since, Gad1 and Gad2 were rescued in Gabrb3^ECKO endothelial cells by the prenatal NAD^+ treatment (FIGS. 10H-10I), it was tested whether GABA expression was rescued in Gabrb3^ECKO endothelial cells (FIGS. 11A-11C). Control endothelial cells typically form tight networks or clusters under normal culture conditions. […] Next, we investigated the secretion of GABA by ELISA in the three groups. […]"}, "[2]": {"tested_on": "Gabrb3^ECKO cerebral cortex", "assay": "Adult (P90) cortex vessel densities and GABA cell counts after prenatal treatment", "experimental": "Histology, immunohistochemistry, and microscopic analysis: Paraffin immunohistochemistry (IHC) was performed on embryonic brains only while frozen section IHC was used on both embryonic and adult brains. Briefly, for paraffin IHC-E18 brains were fixed in zinc fixative (BD Biosciences PharMingen) for 24 h and processed for paraffin histology. Histological stainings with hematoxylin (Vector Laboratories) and eosin (Sigma) were performed on 8 μm coronal sections. Lectin histochemistry (with biotinylated isolectin B4, 1:50, Sigma) as well as IHC was performed on 20 μm sections. […]\nMorphometry: A stereological point grid was superimposed on digital images of biotinylated isolectin-B4+ vessels using ImageJ software. The ratio between points falling on blood vessels and on brain tissue was calculated for each section, and average values were obtained.\nCell counting: Profiles of GABA+ immunoreactive cells were counted in the prefrontal cortex (at bregma levels 1.5, 0.5 and −1.5) using stereotaxic coordinates from the atlas: The Mouse Brain in Stereotaxic Coordinates, by Paxinos and Franklin. For each area, cells in the strip of cortex from the pial surface to the white-gray matter interface were counted using ImageJ software and plotted. […]"}, "Gabrb3^ECKO mice": {"tested_on": "Gabrb3^ECKO mice", "assay": "Nest building (nestlets and shredded paper)", "experimental": "Behavioral Experiments: Mice were housed in our animal facility with a 12-hour light cycle with ad libitum access to food and water. Offspring stayed with their mothers until weaning at PND 21 after which males and females were separated. Before all behavioral testing, mice were acclimated to the testing room for 1 hour. Behavioral assays were performed according to established protocols referenced here: self-grooming, light-dark box, tail suspension test, Y-maze, open field locomotion activity, three chamber social interaction test and nest building with nestlets and with shredded paper. Both males and females were used for all behavioral assays. Experimenters scoring behaviors were blinded to the genotypes and treatment. Sample sizes for each assay are noted in figure legends.\nTherefore, behavioral tests were performed to screen for stress, anxiety, locomotion, cognition, and sociability in saline-treated Gabrb3^fl/fl mice, saline-treated Gabrb3^ECKO mice and NAD^+-treated Gabrb3^ECKO mice. Mice from saline and NAD^+-treated groups were housed individually in cages containing wood chip bedding and two nestlets (pressed cotton) (FIGS. 16A-16D) or more naturalistic material like shredded paper strips (FIGS. 16E-16H). […] This rescue of home cage social behavior was a robust indication of well-being in NAD^+-treated Gabrb3^ECKO mice. […]"}, "wildtype CD1 mice": {"tested_on": "wildtype CD1 mice", "assay": "Increasing dose regimen of NAD+ in wildtype CD1 mice, H&E of MGE", "conditions": "i.p.", "experimental": "Histology, immunohistochemistry, and microscopic analysis: Paraffin immunohistochemistry (IHC) was performed on embryonic brains only while frozen section IHC was used on both embryonic and adult brains. Briefly, for paraffin IHC-E18 brains were fixed in zinc fixative (BD Biosciences PharMingen) for 24 h and processed for paraffin histology. Histological stainings with hematoxylin (Vector Laboratories) and eosin (Sigma) were performed on 8 μm coronal sections. Lectin histochemistry (with biotinylated isolectin B4, 1:50, Sigma) as well as IHC was performed on 20 μm sections. Primary antibodies used for IHC were as follows: anti-PHH3 (1:200, Millipore) and anti-NKX2.1, (1:50; Sigma) followed by secondary detection with AlexaFluor conjugates (Invitrogen). DAPI (Vector Laboratories) was used to label nuclei. For frozen section IHC, E18 and P90 brains were removed, fixed in 4% PFA for 24 hours, cryo-protected in sucrose gradient, embedded into OCT medium for frozen blocks; sectioned at 40 μm on a cryostat and immunostained with anti-GABA (1:80, Sigma) and anti -PROX1 (1:80, Millipore) antibodies. Twenty sections from each brain were used for IHC and histology experiments. Uniform penetration of antibodies or stains throughout the section was ascertained and quality of the staining in each digital section was examined. […]"}},
  "data": [
    {"compound": "NC(=O)c1ccc[n+]([C@@H]2O[C@H](COP(=O)([O-])OP(=O)(O)OC[C@H]3O[C@@H](n4cnc5c(N)ncnc54)[C@H](O)[C@@H]3O)[C@@H](O)[C@H]2O)c1", "note": "[NAD^+]", "values": [
      {"measurement": "GABA secretion (ELISA)", "setting": "[1]", "value": "rescued"},
      {"measurement": "GABAergic interneurons in adult cerebral cortex", "setting": "[2]", "value": "concurrent increase"},
      {"measurement": "blood vessel densities in adult cerebral cortex", "setting": "[2]", "value": "concurrent increase"},
      {"measurement": "nest building ability", "setting": "Gabrb3^ECKO mice", "value": "significant improvement in their nest building ability"},
      {"measurement": "cell cluster in MGE (H&E)", "setting": "wildtype CD1 mice; 10 mg, 20 mg and 40 mg per mouse", "value": "a similar cell cluster in the MGE"},
      {"measurement": "lowest effective dose", "setting": "wildtype CD1 mice", "value": 10, "unit": "mg per mouse"}
    ]}
  ]
}
